Assay [1] deals with T1, Histone deacetylase 8 (Homo sapiens) (UniProt Q9BY41).
T1 sequence (whole entry): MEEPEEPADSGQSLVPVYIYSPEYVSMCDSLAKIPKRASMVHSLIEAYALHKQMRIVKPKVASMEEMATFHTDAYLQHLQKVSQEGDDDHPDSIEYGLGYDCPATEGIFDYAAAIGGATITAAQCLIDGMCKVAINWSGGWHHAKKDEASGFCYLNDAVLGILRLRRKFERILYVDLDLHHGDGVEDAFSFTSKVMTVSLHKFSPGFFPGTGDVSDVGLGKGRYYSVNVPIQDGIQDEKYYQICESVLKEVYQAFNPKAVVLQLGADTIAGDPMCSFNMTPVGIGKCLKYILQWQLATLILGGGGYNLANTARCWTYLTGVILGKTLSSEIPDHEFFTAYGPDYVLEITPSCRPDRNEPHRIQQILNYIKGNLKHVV
Kind of assay: Inhibition of HDAC8 in human HT-29 cells assessed as acetylated SMC3 levels at 25 uM after 6 hrs by Western blot analysis relative to control. Format: cell-based. A general note: Immunoblotting shows a protein as a band on a membrane.

The target in assay [2] is T1, Histone deacetylase 8 (Homo sapiens). Kind of assay: Inhibition of HDAC8 in human HT-29 cells assessed as acetylated SMC3 levels at 25 uM after 24 hrs by Western blot analysis relative to control. Format: cell-based.
Assay [3] in a line: Induction of apoptosis in human BL2 cells assessed as late apoptotic cells at 10 nM after 48 hrs by annexin V-FITC/propidium iodide double staining-based flow cytometry (reference value: 2.1%). Format: functional. A general note: Flow cytometry measures light scatter and fluorescence of single cells or particles in a stream.
Assay [4] concerns the target Histone deacetylase 11 (Homo sapiens) (UniProt Q96DB2). Description: Inhibition of human recombinant HDAC11 at 10^-5 M after 45 mins using fluorogenic substrate by fluorimetric assay relative to control.
Assay [5] concerns U-87 MG. Kind of assay: Potency index, ratio of IC50 for TSA to IC50 for test compound for antiproliferative activity against human U87 cells after 72 hrs by MTS assay. Type of assay: functional, U-87MG ATCC. (In general: Tetrazolium dyes change colour on reduction, which living cells bring about.)
The target of assay [6] is T2, Protein deacetylase HDAC6 (Homo sapiens) (UniProt Q9UBN7).
T2 sequence (whole entry): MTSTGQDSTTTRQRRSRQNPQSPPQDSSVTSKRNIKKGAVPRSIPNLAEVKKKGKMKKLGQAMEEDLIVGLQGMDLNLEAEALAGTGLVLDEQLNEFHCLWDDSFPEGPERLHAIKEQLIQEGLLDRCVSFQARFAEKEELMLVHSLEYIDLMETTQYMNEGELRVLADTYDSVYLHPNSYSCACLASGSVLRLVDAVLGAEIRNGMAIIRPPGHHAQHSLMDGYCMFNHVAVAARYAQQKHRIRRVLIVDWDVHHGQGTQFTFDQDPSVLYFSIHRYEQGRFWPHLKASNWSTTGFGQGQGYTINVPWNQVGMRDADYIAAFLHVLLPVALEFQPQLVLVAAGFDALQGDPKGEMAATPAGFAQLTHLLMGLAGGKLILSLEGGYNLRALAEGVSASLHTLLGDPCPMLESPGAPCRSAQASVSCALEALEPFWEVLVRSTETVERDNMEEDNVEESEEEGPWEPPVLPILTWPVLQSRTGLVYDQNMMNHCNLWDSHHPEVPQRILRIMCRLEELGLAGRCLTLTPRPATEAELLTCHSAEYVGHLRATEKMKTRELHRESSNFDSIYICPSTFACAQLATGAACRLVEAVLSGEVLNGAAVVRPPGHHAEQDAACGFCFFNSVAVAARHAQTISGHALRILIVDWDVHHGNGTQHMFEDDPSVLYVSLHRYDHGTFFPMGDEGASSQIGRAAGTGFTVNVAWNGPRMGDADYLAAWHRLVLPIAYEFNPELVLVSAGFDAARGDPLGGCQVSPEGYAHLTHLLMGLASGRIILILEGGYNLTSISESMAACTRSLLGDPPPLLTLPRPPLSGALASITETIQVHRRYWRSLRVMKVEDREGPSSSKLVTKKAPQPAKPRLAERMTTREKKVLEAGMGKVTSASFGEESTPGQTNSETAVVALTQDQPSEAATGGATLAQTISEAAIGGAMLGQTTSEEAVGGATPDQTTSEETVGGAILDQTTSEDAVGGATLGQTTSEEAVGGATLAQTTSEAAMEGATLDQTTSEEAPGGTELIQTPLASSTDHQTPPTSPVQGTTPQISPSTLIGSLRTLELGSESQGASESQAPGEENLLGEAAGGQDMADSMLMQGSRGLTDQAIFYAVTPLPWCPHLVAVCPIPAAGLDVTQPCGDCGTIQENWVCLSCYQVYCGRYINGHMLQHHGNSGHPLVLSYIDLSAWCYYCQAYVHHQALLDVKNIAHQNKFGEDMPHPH
Kind of assay: Inhibition of HDAC6 in human HT-29 cells assessed as acetylated alpha-tubulin levels at 25 uM after 24 hrs by Western blot analysis relative to control. Type of assay: cell-based.

The test system of assay [7] is K562. Kind of assay: Antiproliferative activity against human K562 cells after 72 hrs by MTS assay. The conditions noted are these: Homo sapiens, K562, 72 h. Type of assay: functional.
Assay [8] addresses T2, Protein deacetylase HDAC6 (Homo sapiens). Description: Inhibition of HDAC6 in human HT-29 cells assessed as acetylated alpha-tubulin levels at 25 uM after 6 hrs by Western blot analysis relative to control. Type of assay: cell-based.
For assay [9], the system named is U-87 MG. Kind of assay: Potency index, ratio of IC50 for isoCA4 to IC50 for test compound for antiproliferative activity against human U87 cells after 72 hrs by MTS assay. Format: functional, U-87MG ATCC.
Assay [10] concerns the target T1, Histone deacetylase 8 (Homo sapiens). Kind of assay: Inhibition of human recombinant HDAC8 at 10^-5 M after 60 mins using fluorogenic substrate by fluorimetric assay relative to control.
Assay [11] concerns HCT-116. Kind of assay: Induction of cell cycle arrest in human HCT116 cells assessed as accumulation at G2/M phase at 5 to 10 nM after 24 hrs by propidium iodide-staining based flow cytometry. Format: functional.
The species entered for assay [12] is Homo sapiens. Description: Induction of cell cycle arrest in human BL2 cells assessed as accumulation at G2/M phase after 24 hrs by propidium iodide-staining based flow cytometry. Type of assay: functional.
In assay [13] the test system is K-562R. Description: Antiproliferative activity against human K562R cells after 72 hrs by MTS assay. Type of assay: functional. The conditions noted are these: Homo sapiens, K-562R, 72 h.
Assay [14] addresses Histone deacetylase 2 (Homo sapiens) (UniProt Q92769). Kind of assay: Inhibition of human recombinant HDAC2 at 10^-5 M after 15 mins using fluorogenic substrate by fluorimetric assay relative to control.
In assay [15] the target is Tubulin (Homo sapiens) (UniProt P68371+Q9H4B7+P0DPH7+P68366+Q13509+Q71U36+P04350+Q3ZCM7+P07437+P68363+Q9BQE3+Q6PEY2+Q13885+Q9BVA1+Q9BUF5). Kind of assay: Inhibition of tubulin polymerization in human K562 cells assessed as disruption of spindle formation at 1 nM after 24 hrs by DAPI-staining based inverted microscopy. Format: cell-based.
Assay [16] has as its target Histone deacetylase (Homo sapiens) (UniProt Q13547+O15379+Q9UBN7+Q92769+Q9UQL6+Q8WUI4+Q9BY41+Q96DB2+P56524+Q9UKV0+Q969S8). Description: Inhibition of HDAC in human HT-29 cells assessed as phosphorylated gamma-H2AX levels at 40 nM after 3 days by Western blot analysis relative to control. Type of assay: cell-based.
In assay [17] the target is T3, Protein deacetylase HDAC6 (Homo sapiens, UniProt Q9UBN7).
T3 sequence (Q9UBN7 whole entry): T2 sequence (whole entry)
Description: Inhibition of human recombinant HDAC6 after 30 mins using fluorogenic substrate by fluorimetric assay

Results on two molecules are retold here after ChEMBL document CHEMBL4325829, “Design and Synthesis of Tubulin and Histone Deacetylase Inhibitor Based on iso-Combretastatin A-4” (J Med Chem, 2018).

The source made the active and inactive calls. The rule behind the calls is not given here.

Chain of Histone deacetylase 11 (Homo sapiens) (Q96DB2 whole entry): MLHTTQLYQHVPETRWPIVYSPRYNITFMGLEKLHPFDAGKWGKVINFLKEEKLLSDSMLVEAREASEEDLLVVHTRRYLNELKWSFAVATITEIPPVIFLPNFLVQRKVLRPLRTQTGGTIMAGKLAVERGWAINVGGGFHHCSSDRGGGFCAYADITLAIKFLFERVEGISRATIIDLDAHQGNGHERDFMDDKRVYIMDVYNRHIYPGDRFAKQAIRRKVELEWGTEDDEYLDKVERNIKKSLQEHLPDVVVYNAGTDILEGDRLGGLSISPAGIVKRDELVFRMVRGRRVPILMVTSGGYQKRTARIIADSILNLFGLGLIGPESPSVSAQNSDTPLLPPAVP
Chain of Histone deacetylase 2 (Homo sapiens) (Q92769 whole entry): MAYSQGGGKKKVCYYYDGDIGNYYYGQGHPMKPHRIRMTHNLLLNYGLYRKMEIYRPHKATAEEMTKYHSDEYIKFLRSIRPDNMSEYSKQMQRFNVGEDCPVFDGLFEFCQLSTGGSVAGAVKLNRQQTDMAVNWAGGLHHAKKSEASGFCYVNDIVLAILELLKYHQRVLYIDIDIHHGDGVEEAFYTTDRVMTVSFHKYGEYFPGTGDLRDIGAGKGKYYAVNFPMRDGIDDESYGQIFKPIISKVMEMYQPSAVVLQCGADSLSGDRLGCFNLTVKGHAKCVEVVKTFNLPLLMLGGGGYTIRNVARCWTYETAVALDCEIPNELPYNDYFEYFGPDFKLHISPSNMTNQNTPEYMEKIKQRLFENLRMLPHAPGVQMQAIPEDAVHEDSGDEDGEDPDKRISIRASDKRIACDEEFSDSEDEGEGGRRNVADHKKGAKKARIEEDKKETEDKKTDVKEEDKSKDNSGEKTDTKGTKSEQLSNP

Regarding `C=C(c1ccc(OC)c(/C=C/C(=O)NO)c1)c1cc(OC)c(OC)c(OC)c1`, the fold change (FC) in assay [1] turned out to be 3.2; in assay [2], 5.4; in assay [6], 0.5; in assay [8], 0.4; in [16], 3.2. Moreover, in [3], the Activity came out at 13.7%. Further, the inhibition was 60% in assay [4], 95% in assay [10] and below 50% in assay [14]. Besides, the results for the “Ratio IC50” value in assay [5] and in assay [9] were 650 and 5, respectively. In addition, the 50% growth inhibitory concentration (GI50) turned out to be 1.6 nM in assay [7] and 1.4 nM in assay [13]. Further, the outcome in [11], in [12] and in assay [15] was Active.
Turning to `C=C(c1ccc(OC)c(O)c1)c1cc(OC)c(OC)c(OC)c1`, the Activity in [3] was determined as 14.3%. Further, the inhibition result in assay [4], in assay [10] and in assay [14] was “inactive” throughout. For the same molecule, in assay [17], the IC50 result was “Not Active”. The figures for the GI50 in assay [7] and in assay [13] were 5.2 nM and 2.2 nM, respectively.

As a reminder, the inhibition is the percentage by which the read-out fell short of the control. In general, GI50 refers to the concentration that inhibits growth by half.
